Experimental data taken from article PMC6261607, “Novel high–throughput myofibroblast assays identify agonists with therapeutic potential in pulmonary fibrosis that act via EP2 and EP4 receptors” (PLoS ONE, 2018).
Where two headings read alike, the source gives them in different places.

What was measured:
[1] = tested on: normal human lung fibroblasts (NHLF); test: Phenotypic high-content assay (HCA) of TGF–β1–induced fibroblast–to–myofibroblast differentiation; assay type: cell-based; details: for IC50: 5 ng/ml TGF–β1 for 48 h, compound added with TGF–β1, mean ± SD, read-out: HCA IC50; for inhibition at 10 µM: read-out: Effect HCA at 10 µM [% inhibition], 10 µM compound, 5 ng/ml TGF–β1, 48 h
How it was run: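 NHLF starved 24 h in serum-free basal medium with 0.1% BSA, then given compounds together with 5 ng/ml TGF-β1 for 48 h (0.6% DMSO). Methanol-fixed cells imaged for DAPI, α-SMA and FN; an SVM trained on ±TGF-β1 controls classified each cell, giving per-well % myofibroblast differentiation and nuclear counts.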

[2] = tested on: COL1 protein in NHLF cells; test: RapidFire MS/MS quantification of COL1 (IPQA), standard assay; assay type: cell-based, human
Procedure: Cell culture medium was removed and cells were lysed on ice by adding 5 μl / well of pre–cooled protein extraction buffer containing 10 mM Tris–HCl (pH 8.0), 6 M urea and 2 M thiourea and shaking on ice on a plate shaker at 600 rpm for 30 min.
Cell lysate was transferred to a 96–well polypropylene–PCR–plate. 15 μl / well denaturation buffer (6 M urea, 50 mM ammonium bicarbonate) and 2 μl / well of 50 mM TCEP were added and samples were denatured for 1 h at 60°C using the Veriti 96–well Fast Thermal Cycler System (Applied Biosystem) with a heated lid. Plates were allowed to cool to RT. Subsequently, 2 μl of 100 mM iodoacetamide were added per well to derivatize cysteine residues. Plates were then sealed and vortexed for 2 min in the dark and incubated for 30 min at 37°C in a thermal cycler with a heated lid. 90 μl of 50 mM ammonium bicarbonate pH 7.8 were added, followed by the addition of 10 μl of trypsin at 0.02 μg / ml. Samples were trypsin–digested overnight at 37°C in a thermal cycler with heated lid. […] Samples were desalted under vacuum using an Oasis HLB 96–well (30 μm particle size, 5 mg sorbent / well) reverse phase cartridge according to the manufacturer’s instructions and eluted with 170 μl of 90% acetonitrile, 0.1% formic acid. Samples were dried down with a flow of nitrogen at 40°C, left to cool to RT and re–suspended in 40 μl 5% acetonitrile, 0.1% formic acid on a plate shaker set to 1400 rpm for 5 min. Plates were centrifuged at 4,000 rpm for 10 min and 2 times 12 μl / well of supernatant were transferred into separate 96–well plates (Greiner Bio–One), sealed and stored at 4°C until analyzed by MS / MS.
Surrogate tryptic peptides were chosen for detection of COL1 (COL1A1), α–SMA (ACTA) and tubulin (TBA1A1) and crude synthetic peptides were purchased from Thermo Fischer. After several rounds of optimization following standard workflows, […] (COL1 / COL1A1), […] (α–SMA / ACTA) and […] LC–MS / MS analysis was performed on a RapidFire™ RF360 system (Agilent Technologies) coupled to an API 5500 (ABSciex) with positive ion electrospray ionization. […] Detection was performed using multiple reaction monitoring (MRM) mode to monitor parent⟶product ion transitions (m / z). […] The source parameters were curtain gas (CUR) nitrogen: 20 psig; collision gas (CAD): 7 psig; ion source gas 1: 50.0 psig; ion source gas 2: 50.0 psig; ion spray voltage (IS): 5500 V; turbo heater temperature (TEM): 600°C; entrance potential (EP): 10V. Peak areas for COL1A1 and ACTA were normalized by dividing by TBA1A peak area.

[3] = Homo sapiens, Fibroblast, 48 h, NHLF
[4] = Homo sapiens, Col1, 48 h, NHLF, 5 ng/ml TGF–β1, 48 h, representative experiment of supplementary figure, read-out: IC50 on COL1 (curve of a single experiment)
[5] = Homo sapiens, Col1, 48 h, NHLF, 5 ng/ml TGF–β1, lysed 48 h after TGF–β1, normalized to tubulin, mean ± SD, read-out: MS / MS COL1 IC50
[6] = Homo sapiens, Col1, NHLF, 5 ng/ml TGF–β1, lysed 48 h after TGF–β1, normalized to tubulin, mean ± SD, read-out: MS / MS COL1 IC50
[7] = NHLF, 5 ng/ml TGF–β1, lysed 48 h after TGF–β1, normalized to tubulin, mean ± SD, read-out: MS / MS COL1 IC50
[8] = Homo sapiens, Col1, NHLF, 5 ng/ml TGF–β1, 48 h, representative experiment of supplementary figure, read-out: IC50 on COL1 (curve of a single experiment)

CCCCC[C@H](O)/C=C/[C@H]1[C@H](O)CC(=O)[C@@H]1CCCCCCC(=O)O [Alprostadil]
IC50 [1, 3]: 9 nM
inhibition at 10 µM ([1]; Homo sapiens, Fibroblast): 97%
IC50 ([1]; NHLF): 8.6 ± 10 nM
IC50 [2, 4]: 3.2 nM
IC50 [2, 5]: 5 ± 1.4 nM
effect on basal COL1 expression ([2]; NHLF in the absence of TGF–β1): no effect

C[C@]12CC[C@H](O)C[C@H]1CC[C@@H]1[C@@H]2C[C@@H](O)[C@]2(C)[C@@H](C3=CC(=O)OC3)CC[C@]12O [Digoxigenin]
concentrations that reduced cell surface area (CellMask Orange stain) ([1]; HCA, NHLF): ≥ 1250 nM
IC50 [1, 3]: 220 nM
inhibition at 10 µM ([1]; Homo sapiens, Fibroblast): 100%
IC50 [2, 6]: 85 ± 8 nM

Cc1cccc(-c2[nH]c(CNc3ccccc3F)nc2-c2ccc3ncnn3c2)n1 [EW–7197]
IC50 [1, 3]: 80 ± 30 nM
IC50 ([1]; NHLF): 82 ± 30 nM
IC50 [2, 5]: 111 ± 30 nM
IC50 [2, 7]: 110 ± 30 nM

CC(C)(C)c1ccc(CN(Cc2cccc(OCC(=O)O)c2)S(=O)(=O)c2cccnc2)cc1 [Evatanepag]
IC50 [1, 3]: 82 ± 110 nM
IC50 [2, 8]: 11.4 nM
IC50 [2, 6]: 11 nM

O=C(CC1NCCCC1O)Cn1cnc2cc(Br)c(Cl)cc2c1=O (centres unmarked) [Halofuginone]
IC50 [1, 3]: 690 ± 320 nM
IC50 [2, 8]: 28 nM
IC50 [2, 6]: 27 ± 1 nM

O=C1CC[C@H](/C=C/[C@@H](O)Cc2ccccc2)N1CCCCCCc1nn[nH]n1 [Merck–19a]
IC50 [2, 7]: 17.7 ± 7 nM

COC(=O)c1ccc2c(c1)NC(=O)/C2=C(\Nc1ccc(N(C)C(=O)CN2CCN(C)CC2)cc1)c1ccccc1 [Nintedanib]
IC50 [1, 3]: 760 ± 130 nM
IC50 [2, 5]: 1600 nM

CCCCC[C@H](O)/C=C/[C@H]1[C@H](O)CC(=O)[C@@H]1C/C=C\CCCC(=O)O [PGE2, prostaglandin E2]
IC50 [2, 4]: 1.8 nM
IC50 [2, 5]: 4.9 ± 4.4 nM

TGF–β1: transforming growth factor–β1, stimulus of myofibroblast differentiation
EC50 of myofibroblast differentiation in HCA ([1]; NHLF, 48 h, mean ± SD (n = 7)): 0.02 ± 0.01 ng/mL
COL1 / tubulin ratio ([2]; NHLF, 5 ng/mL TGF-β1): 0.33 ± 0.07
EC50 of COL1 protein increase ([2]; NHLF, 48 hours, MS/MS (n = 8)): 0.05 ± 0.01 ng/mL
increase of COL1 protein ([2]; NHLF, at 48 hours): about 3 fold
